Experimental data: ChEMBL document CHEMBL1201862, “PubChem BioAssay data set” (2004)
The source made the active and inactive calls.

Assays:
[1] = system: HEK293; test: cells; type: functional, cell-based; conditions: Homo sapiens
[2] = biological target: T1, Nuclear receptor subfamily 0 group B member 1 (Homo sapiens, UniProt P51843); test: Luminescence-based cell-based high throughput dose response assay for inhibitors of the orphan nuclear receptor subfamily 0, group B, member 1 (DAX1; NR0B1). [Related pubchem assays (depositor defined):AID504766, AID504790]; type: functional
T1 sequence (P51843 whole entry): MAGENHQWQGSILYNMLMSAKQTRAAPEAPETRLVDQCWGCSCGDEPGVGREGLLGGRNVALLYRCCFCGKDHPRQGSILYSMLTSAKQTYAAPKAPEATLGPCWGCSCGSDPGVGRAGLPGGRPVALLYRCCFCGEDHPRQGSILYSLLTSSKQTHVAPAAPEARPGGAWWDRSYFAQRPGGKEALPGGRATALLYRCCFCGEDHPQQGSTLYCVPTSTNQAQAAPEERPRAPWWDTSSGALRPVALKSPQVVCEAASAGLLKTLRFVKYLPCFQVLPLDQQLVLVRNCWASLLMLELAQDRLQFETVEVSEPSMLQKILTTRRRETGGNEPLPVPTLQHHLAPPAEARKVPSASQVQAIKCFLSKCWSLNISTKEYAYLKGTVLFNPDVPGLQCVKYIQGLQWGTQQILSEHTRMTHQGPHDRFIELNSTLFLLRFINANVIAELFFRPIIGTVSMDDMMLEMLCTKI

[3] = biological target: Tyrosine-protein kinase JAK3 (Homo sapiens, UniProt P52333); type: functional
Sequence of Tyrosine-protein kinase JAK3 (P52333 whole entry): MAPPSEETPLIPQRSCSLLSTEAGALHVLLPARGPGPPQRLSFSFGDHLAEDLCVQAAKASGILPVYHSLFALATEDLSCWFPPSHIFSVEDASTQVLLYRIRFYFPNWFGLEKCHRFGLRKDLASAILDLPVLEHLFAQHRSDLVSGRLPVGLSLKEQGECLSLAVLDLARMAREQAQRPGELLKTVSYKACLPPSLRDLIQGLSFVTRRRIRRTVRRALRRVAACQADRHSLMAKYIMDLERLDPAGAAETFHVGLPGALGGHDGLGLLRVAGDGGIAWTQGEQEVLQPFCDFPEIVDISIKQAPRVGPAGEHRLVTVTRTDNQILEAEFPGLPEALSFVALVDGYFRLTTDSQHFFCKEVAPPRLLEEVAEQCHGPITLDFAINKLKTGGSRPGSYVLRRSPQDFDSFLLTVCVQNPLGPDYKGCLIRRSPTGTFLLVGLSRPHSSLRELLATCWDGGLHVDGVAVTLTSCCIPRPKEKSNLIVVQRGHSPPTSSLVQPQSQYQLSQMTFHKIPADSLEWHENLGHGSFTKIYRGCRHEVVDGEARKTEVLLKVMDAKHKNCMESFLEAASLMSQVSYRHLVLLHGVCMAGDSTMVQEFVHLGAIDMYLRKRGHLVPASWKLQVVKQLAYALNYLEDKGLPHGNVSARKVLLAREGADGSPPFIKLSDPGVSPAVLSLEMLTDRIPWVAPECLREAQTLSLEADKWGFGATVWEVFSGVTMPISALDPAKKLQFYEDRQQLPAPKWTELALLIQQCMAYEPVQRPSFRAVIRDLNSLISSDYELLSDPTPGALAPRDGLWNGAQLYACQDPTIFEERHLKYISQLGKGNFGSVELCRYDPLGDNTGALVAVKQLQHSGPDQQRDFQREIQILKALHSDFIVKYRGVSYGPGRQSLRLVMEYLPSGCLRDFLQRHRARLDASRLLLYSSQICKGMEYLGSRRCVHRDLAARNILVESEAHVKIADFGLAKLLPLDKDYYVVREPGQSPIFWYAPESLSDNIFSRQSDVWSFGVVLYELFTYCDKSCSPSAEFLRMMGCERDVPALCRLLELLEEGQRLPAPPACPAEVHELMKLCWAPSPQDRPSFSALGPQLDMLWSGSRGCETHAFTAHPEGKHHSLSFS

[4] = biological target: BDNF/NT-3 growth factors receptor (Homo sapiens, UniProt Q16620); type: functional;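 further: NTRK2 measured as one member of a broad kinome-wide kinase profiling panel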
Sequence of BDNF/NT-3 growth factors receptor (Q16620 whole entry): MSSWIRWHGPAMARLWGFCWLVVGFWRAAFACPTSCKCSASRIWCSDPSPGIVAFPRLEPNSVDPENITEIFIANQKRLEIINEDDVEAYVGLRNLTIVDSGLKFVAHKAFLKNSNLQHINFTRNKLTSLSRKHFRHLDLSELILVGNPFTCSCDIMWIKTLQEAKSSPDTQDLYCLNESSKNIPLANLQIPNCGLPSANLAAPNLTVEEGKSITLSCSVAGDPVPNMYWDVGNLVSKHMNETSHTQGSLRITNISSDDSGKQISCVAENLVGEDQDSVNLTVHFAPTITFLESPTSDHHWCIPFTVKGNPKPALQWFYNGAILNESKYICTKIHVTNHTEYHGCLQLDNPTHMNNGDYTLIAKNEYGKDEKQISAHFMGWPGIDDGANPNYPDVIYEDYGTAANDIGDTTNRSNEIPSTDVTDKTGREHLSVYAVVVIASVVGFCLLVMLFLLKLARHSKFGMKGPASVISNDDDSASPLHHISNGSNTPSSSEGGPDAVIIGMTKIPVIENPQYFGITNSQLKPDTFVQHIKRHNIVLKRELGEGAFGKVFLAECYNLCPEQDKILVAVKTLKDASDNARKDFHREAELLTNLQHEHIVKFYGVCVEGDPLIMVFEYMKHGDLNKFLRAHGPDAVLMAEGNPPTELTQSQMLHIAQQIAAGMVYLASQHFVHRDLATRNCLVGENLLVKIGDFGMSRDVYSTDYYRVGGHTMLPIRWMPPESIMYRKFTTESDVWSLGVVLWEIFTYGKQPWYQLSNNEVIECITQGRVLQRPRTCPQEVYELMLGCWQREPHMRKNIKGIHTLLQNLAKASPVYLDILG

[5] = biological target: Calcium/calmodulin-dependent protein kinase type II subunit alpha (Homo sapiens, UniProt Q9UQM7); test: Navigating the Kinome. Panel member name: CAMK2A; type: functional
Sequence of Calcium/calmodulin-dependent protein kinase type II subunit alpha (Q9UQM7 whole entry): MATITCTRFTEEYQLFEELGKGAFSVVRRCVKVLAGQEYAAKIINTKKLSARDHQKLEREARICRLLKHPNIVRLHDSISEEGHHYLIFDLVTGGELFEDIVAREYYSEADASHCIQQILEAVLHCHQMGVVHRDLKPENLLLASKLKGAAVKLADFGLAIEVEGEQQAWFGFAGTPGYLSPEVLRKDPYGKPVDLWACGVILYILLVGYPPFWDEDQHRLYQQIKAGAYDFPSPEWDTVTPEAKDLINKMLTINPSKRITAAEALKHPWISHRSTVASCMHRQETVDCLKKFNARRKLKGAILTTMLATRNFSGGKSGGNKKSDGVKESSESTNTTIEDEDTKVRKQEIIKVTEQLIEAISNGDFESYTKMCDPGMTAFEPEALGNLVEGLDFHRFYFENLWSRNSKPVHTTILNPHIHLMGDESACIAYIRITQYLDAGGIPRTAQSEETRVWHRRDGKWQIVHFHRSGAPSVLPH

[6] = Shn3 3'UTR reporter inhibitors, dose response, cell-based, Clone20 osteoblasts, firefly luciferase, cherry-picked (AID 624132); type: functional;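 further: firefly luciferase luminescence from reporter carrying the Shn3 3'UTR in osteoblasts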
[7] = HepG2 cell cytotoxicity, dose response, cytotoxicity control for Shn3 inhibitor project, CellTiter-Glo, cherry-picked (AID 624134); type: functional, cell-based
[8] = control 3'UTR Renilla luciferase suppression, dose response, counter-screen for Shn3 inhibitor project, cell-based, Clone20-Shn3RL, cherry-picked (AID 624133); type: functional
[9] = biological target: T2, High affinity choline transporter 1 (Homo sapiens, UniProt Q9GZV3); test: CHT activators, dose response, cell-based, 10-point CRC, membrane potential dye (AID 602376); type: functional
T2 sequence (Q9GZV3 whole entry): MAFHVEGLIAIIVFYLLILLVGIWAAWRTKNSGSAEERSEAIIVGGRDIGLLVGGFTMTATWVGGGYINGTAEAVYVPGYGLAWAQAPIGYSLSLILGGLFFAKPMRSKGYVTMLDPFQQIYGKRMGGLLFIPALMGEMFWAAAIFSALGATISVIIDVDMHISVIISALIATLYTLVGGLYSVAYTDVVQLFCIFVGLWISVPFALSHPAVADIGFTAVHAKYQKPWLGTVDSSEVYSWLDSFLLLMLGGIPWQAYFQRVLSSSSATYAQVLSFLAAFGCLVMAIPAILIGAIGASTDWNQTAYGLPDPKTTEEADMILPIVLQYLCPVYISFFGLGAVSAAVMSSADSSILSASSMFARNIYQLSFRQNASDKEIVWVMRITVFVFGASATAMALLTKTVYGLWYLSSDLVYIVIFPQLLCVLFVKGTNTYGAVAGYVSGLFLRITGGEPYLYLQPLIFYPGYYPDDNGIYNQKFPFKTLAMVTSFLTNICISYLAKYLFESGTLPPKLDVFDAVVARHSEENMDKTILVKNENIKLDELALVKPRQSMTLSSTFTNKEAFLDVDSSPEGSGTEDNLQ

[10] = system: HEK293; test: NOD1 signaling inhibitors, primary screen, cell-based, luminescence, uHTS (AID 1578); type: functional; conditions: Homo sapiens
[11] = system: HEK293; test: cells; type: functional, cell-based; conditions: Homo sapiens; remark: listed apart in the source
[12] = system: HEK293; test: cells; type: functional, cell-based; conditions: Homo sapiens; remark: listed apart in the source
[13] = system: HEK293; test: NOD2 signaling inhibitors in MDP-stimulated cells, cell-based, uHTS, luminescence (AID 2001); type: functional; conditions: Homo sapiens
[14] = system: HEK293; test: cells; type: functional, cell-based; conditions: Homo sapiens; remark: listed apart in the source
[15] = system: HEK293; test: cells; conditions: Homo sapiens
[16] = biological target: Dual specificity protein kinase CLK1 (Homo sapiens, UniProt P49759); test: CLK1 kinase inhibitors, off-target check, dose response, selectivity assay for Dyrk1A inhibitor project, biochemical, cherry-picked samples (AID 588811)
Sequence of Dual specificity protein kinase CLK1 (P49759 whole entry): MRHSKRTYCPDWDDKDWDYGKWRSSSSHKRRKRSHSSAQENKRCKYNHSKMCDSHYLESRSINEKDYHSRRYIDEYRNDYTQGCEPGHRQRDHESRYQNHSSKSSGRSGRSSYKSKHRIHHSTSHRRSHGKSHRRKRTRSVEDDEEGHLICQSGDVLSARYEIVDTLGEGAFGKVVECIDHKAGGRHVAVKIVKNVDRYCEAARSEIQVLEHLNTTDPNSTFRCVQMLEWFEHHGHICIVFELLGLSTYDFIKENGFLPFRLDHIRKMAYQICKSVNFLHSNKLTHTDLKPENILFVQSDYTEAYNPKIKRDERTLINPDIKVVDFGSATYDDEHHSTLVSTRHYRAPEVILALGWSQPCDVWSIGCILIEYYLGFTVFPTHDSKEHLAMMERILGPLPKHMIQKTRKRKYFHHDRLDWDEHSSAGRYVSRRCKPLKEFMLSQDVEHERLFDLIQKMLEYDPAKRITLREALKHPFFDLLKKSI

[17] = system: Escherichia coli; test: microbe, parasite or virus in culture
[18] = biological target: Nucleotide-binding oligomerization domain-containing protein 2 (Homo sapiens, UniProt Q9HC29); test: NOD2 signaling inhibitors, cell-based, luminescence, uHTS, HEK293 (AID 1566); type: functional
Sequence of Nucleotide-binding oligomerization domain-containing protein 2 (Q9HC29 whole entry, the tested form may be a part): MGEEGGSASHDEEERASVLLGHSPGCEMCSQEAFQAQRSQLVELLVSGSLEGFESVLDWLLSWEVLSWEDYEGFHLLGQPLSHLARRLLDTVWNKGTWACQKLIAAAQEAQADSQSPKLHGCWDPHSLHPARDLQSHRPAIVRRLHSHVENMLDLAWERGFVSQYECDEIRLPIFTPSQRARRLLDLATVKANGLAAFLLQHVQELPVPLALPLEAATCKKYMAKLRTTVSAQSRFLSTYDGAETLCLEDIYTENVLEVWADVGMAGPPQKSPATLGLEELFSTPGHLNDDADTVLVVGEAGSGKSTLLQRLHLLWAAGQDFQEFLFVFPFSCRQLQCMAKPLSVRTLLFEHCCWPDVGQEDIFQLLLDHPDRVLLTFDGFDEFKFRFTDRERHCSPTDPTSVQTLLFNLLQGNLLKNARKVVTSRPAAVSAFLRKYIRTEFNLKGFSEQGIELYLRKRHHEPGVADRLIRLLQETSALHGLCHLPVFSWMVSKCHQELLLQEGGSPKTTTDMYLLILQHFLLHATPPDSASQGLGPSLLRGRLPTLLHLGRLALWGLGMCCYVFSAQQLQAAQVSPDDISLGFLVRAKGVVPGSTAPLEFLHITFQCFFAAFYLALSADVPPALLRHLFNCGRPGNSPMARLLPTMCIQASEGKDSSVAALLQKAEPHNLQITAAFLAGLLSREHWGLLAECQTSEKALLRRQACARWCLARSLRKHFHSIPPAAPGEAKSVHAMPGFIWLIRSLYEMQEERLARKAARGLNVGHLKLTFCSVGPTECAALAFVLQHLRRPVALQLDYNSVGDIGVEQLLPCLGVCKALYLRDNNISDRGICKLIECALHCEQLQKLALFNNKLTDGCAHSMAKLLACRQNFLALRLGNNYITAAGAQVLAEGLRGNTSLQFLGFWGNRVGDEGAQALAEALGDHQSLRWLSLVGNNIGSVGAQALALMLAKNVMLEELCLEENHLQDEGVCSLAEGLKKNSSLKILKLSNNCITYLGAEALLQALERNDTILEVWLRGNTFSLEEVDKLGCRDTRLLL

[19] = biological target: Tumor necrosis factor (Homo sapiens, UniProt P01375); test: TNFa-triggered NF-kB activation inhibitors, SAR follow-up, cell-based, revised (AID 2337); type: functional
Sequence of Tumor necrosis factor (P01375 whole entry, the tested form may be a part): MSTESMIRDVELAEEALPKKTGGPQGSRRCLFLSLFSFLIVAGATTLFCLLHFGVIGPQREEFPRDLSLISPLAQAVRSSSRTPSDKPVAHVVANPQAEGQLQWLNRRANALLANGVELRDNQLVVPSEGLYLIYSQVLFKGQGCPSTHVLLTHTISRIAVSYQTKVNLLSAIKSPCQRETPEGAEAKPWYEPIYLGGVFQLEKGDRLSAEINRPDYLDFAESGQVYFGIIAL

[20] = biological target: T3, Nucleotide-binding oligomerization domain-containing protein 1 (Homo sapiens, UniProt Q9Y239); test: NOD1 signaling inhibitors, SAR follow-up, revised (AID 2333); type: functional
T3 sequence (Q9Y239 whole entry): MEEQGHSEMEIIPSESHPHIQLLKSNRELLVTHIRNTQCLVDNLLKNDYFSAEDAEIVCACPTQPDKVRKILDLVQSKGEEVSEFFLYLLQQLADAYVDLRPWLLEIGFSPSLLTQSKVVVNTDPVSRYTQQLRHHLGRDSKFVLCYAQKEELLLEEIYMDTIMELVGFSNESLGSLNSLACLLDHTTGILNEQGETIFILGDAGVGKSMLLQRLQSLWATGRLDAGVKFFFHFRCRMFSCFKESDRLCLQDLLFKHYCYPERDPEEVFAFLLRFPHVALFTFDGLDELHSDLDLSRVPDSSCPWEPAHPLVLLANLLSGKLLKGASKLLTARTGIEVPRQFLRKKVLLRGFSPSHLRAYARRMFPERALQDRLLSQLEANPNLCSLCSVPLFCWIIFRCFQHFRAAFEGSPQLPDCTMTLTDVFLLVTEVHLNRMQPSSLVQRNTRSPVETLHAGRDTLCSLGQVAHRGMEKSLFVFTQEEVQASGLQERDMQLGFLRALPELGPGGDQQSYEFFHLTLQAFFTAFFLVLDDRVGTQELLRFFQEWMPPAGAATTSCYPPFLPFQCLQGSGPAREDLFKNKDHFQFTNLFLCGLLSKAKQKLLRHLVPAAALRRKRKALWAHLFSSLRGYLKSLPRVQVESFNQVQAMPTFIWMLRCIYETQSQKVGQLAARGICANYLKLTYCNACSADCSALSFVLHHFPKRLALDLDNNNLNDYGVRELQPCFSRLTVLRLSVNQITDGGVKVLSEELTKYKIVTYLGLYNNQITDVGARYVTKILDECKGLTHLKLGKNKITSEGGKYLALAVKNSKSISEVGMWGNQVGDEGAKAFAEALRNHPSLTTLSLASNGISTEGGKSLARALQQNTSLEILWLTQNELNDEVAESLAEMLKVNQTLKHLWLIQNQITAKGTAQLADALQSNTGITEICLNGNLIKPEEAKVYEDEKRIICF

CC1=C(C(=O)OCC2CCCO2)C(c2coc3ccc(Cl)cc3c2=O)C2=C(O)CCCC2=N1 (stereo unspecified)
IC50 [1]: > 67.5 µM (inactive) | IC50 [2]: > 67.5 µM (inactive)

Clc1cccc(Nc2nc(N3CCOCC3)nc(-n3cccn3)n2)c1
Ki [3]: 3.16 µM (active) | Ki [4]: 3.16 µM (active) | Ki [5]: 2.51 µM (active)

CCN(CC)CCn1c(=N)n(CC(O)COc2cccc(C)c2)c2ccccc21 (stereo unspecified)
AC50 [6]: 4.39 µM (active) | AC50 [7]: 21.2 µM (active) | AC50 [8]: 7.45 µM (active) | EC50 [9]: 12.4 µM (active)

Cc1oc(-c2ccccc2Cl)nc1CSc1nc(O)c2c(n1)CCCC2
EC50 [10]: 8.45 µM (active) | IC50 [11]: 19.5 µM (active) | IC50 [12]: > 20 µM (inactive) | IC50 [13]: 7.49 µM (active) | IC50 [14]: > 20 µM (inactive) | IC50 [15]: > 20 µM (inactive)

Cc1ccsc1CNc1ncnc2ccc(-c3ccc4c(c3)OCO4)cc12
AC50 [16]: 0.00994 µM (active)

Cc1ccc(C(=O)N2CCCC(CCC(=O)NCc3ccc(F)c(F)c3)C2)cn1 (stereo unspecified)
AC50 [17]: 33.1 µM (active)

COc1ccc(CN(C)S(=O)(=O)c2nnc(NC(=O)c3cccc(F)c3)s2)cc1
EC50 [10]: 1.8 µM (active) | IC50 [11]: 17.1 µM (active) | IC50 [12]: > 20 µM (inactive) | EC50 [18]: 12.7 µM (active) | IC50 [13]: 12.3 µM (inactive) | IC50 [14]: > 20 µM (inactive) | IC50 [19]: 8.03 µM (active) | IC50 [20]: 6.74 µM (active) | IC50 [15]: > 20 µM (inactive)
